Here are results for six compounds from patent US4843070A, “Substituted thiazetoquinoline-3-carboxylic acids and pharmaceutically acceptable salts thereof” (priority 1986, dated 1989).

The subject of test [1] is S. flexneri. The test can be described thus: MIC by agar plate dilution method, S. flexneri. Format: cell-based. To be noted: Shigella flexneri, Test 2, inoculum 10^6, 37° C., 18 hours, read-out: minimum inhibitory concentration (MIC). Here is the method:
(§1) Test method: The MIC was measured by an agar plate dilution method in accordance with a standard method of Japan Chemotherapeutic Society (cf. Nippon Kagaku Ryoho Gakkaishi, 29(1), 76-79, 1981). Thus, the organisms incubated at 37° C. for 18 hours using sensitivity test broth (Nissei) was diluted to 10^6 CFU/ml using the same broth. […] As a control, enoxacin and ofloxacin were used in Tests 1 and 2, respectively.
(§2) The numbers of the inoculated bacteria were 10^6 in all cases and the unit of the MIC was micrograms/ml.

In test [2] the test system is S. epidermidis. The test can be described thus: MIC by agar plate dilution method, S. epidermidis. The format is cell-based. As to conditions: Staphylococcus epidermidis, Test 2, inoculum 10^6, 37° C., 18 hours, read-out: minimum inhibitory concentration (MIC). The method, then: as §1, §2
Test [3] relates to S. aureus 209-P JC. The test can be described thus: MIC by agar plate dilution method, S. aureus 209-P JC. Format: cell-based. As to conditions: Staphylococcus aureus; Test 2; S. aureus 209-P JC; inoculum 10^6; 37° C., 18 hours; read-out: minimum inhibitory concentration (MIC). The method, then: as §1, §2
Test [4] relates to Proteus mirabilis 181. Briefly: MIC by agar plate dilution method, Proteus mirabilis 181. To be noted: Test 2; Proteus mirabilis 181; inoculum 10^6; 37° C., 18 hours; read-out: minimum inhibitory concentration (MIC). The format is cell-based. Here is the method: as §1, §2
In test [5] the test system is P. aeruginosa E-2. Briefly: MIC by agar plate dilution method, P. aeruginosa E-2. To be noted: Pseudomonas aeruginosa, E2; Test 2; P. aeruginosa E-2; inoculum 10^6; 37° C., 18 hours; read-out: minimum inhibitory concentration (MIC). The format is cell-based. Here is the method: as §1, §2
Test [6] relates to B. subtilis ATCC 6633. Briefly: MIC by agar plate dilution method, B. subtilis ATCC 6633. To be noted: Bacillus subtilis, ATCC6633; Test 2; B. subtilis ATCC 6633; inoculum 10^6; 37° C., 18 hours; read-out: minimum inhibitory concentration (MIC). The format is cell-based. The method, then: as §1, §2
The test system of test [7] is S. marcescens IFO 3736. Briefly: MIC by agar plate dilution method, S. marcescens IFO 3736. Format: cell-based. As to conditions: Serratia marcescens, IFO3736; Test 2; S. Marcescens IFO 3736; inoculum 10^6; 37° C., 18 hours; read-out: minimum inhibitory concentration (MIC). Here is the method: as §1, §2
Test [8] has as its system K. pneumoniae K-1966. The test can be described thus: MIC by agar plate dilution method, K. pneumoniae K-1966. To be noted: Klebsiella pneumoniae, read-out: minimum inhibitory concentration (MIC). Format: cell-based. The method, then: as §1, §2
Test [9] has as its system M. luteus ATCC 9341. Briefly: MIC by agar plate dilution method, M. luteus ATCC 9341. Format: cell-based. To be noted: Micrococcus luteus, ATCC9341; Test 2; M. luteus ATTC 9341; inoculum 10^6; 37° C., 18 hours; read-out: minimum inhibitory concentration (MIC). The method, then: as §1, §2
Test [10] deals with E. coli NIHJ JC-2. Briefly: MIC by agar plate dilution method, E. coli NIHJ JC-2. As to conditions: Escherichia coli, read-out: minimum inhibitory concentration (MIC). The format is cell-based. The method, then:
as §1, §2

The test system of test [11] is infections caused by Gram positive bacteria and Pseudomonas aeruginosa (chronic). To be noted: background statement; cited from earlier work.
The mark [12] stands for this setting: K1966, Test 2, K. pneumoniae K-1966, inoculum 10^6, 37° C., 18 hours.
The mark [13] stands for this setting: NIHJJC2, Test 2, E. coli NIHJ JC-2, inoculum 10^6, 37° C., 18 hours.

Converted amounts (≈) assume the structure as drawn. Read-outs that look alike come from different tables or passages of the source.

Take `O=C(O)c1c2n(c3cc(N4CCNCC4)c(F)cc3c1=O)C(c1ccccc1)S2` (stereo not drawn) [Table 1 (11), 6-Fluoro-4-oxo-1-phenyl-7-(1-piperazinyl)-4H-(1,3)thiazeto(3,2-a)quinoline-3-carboxylic acid]: the MIC came to 0.025 µg/mL (≈ 0.0608 µM) in test [1]; 1.56 µg/mL (≈ 3.79 µM) in test [2]; 0.2 µg/mL (≈ 0.486 µM) in test [3]; 0.05 µg/mL (≈ 0.122 µM) in test [4]; 0.2 µg/mL (≈ 0.486 µM) in [5]; 0.05 µg/mL (≈ 0.122 µM) in [6]. The MIC is 0.05 µg/mL (≈ 0.122 µM) in [7], 0.025 µg/mL (≈ 0.0608 µM) in test [8] (setting [12]), 3.13 µg/mL (≈ 7.61 µM) in test [9] and 0.025 µg/mL (≈ 0.0608 µM) in [10] (setting [13]).

Take `O=C(O)c1c2n(c3cc(N4CCNCC4)c(F)cc3c1=O)C(c1ccc(F)cc1)S2` (stereo not drawn) [Table 1 (12), 6-Fluoro-1-(4-fluorophenyl)-4-oxo-7-(1-piperazinyl)-4H-(1,3)thiazeto(3,2-a)quinoline-3-carboxylic acid]: the MIC amounted to 0.025 µg/mL (≈ 0.0582 µM) in test [1]; 0.39 µg/mL (≈ 0.908 µM) in test [2]; 0.2 µg/mL (≈ 0.466 µM) in [3]; 0.2 µg/mL (≈ 0.466 µM) in test [4]; 0.39 µg/mL (≈ 0.908 µM) in test [5]; 0.05 µg/mL (≈ 0.116 µM) in [6]. The MIC turned out to be 0.39 µg/mL (≈ 0.908 µM) in test [7], 0.0125 µg/mL (≈ 0.0291 µM) in test [8] (setting [12]), 1.56 µg/mL (≈ 3.63 µM) in test [9] and 0.025 µg/mL (≈ 0.0582 µM) in test [10] (setting [13]).

For `CC1Sc2c(C(=O)O)c(=O)c3cc(F)c(N4CCNCC4)cc3n21` (stereo not drawn) [Table 1 (13), 6-Fluoro-1-methyl-4-oxo-7-(1-piperazinyl)-4H-(1,3)thiazeto(3,2-a)quinoline-3-carboxylic acid], the MIC in test [1] was 0.0125 µg/mL (≈ 0.0358 µM); in test [2] it was 3.13 µg/mL (≈ 8.96 µM); in [3], 0.1 µg/mL (≈ 0.286 µM); in test [4] it was 0.025 µg/mL (≈ 0.0716 µM); in test [5] it was 0.2 µg/mL (≈ 0.572 µM); in test [6], 0.1 µg/mL (≈ 0.286 µM). The MIC in [7] was determined as 0.05 µg/mL (≈ 0.143 µM); in test [8] (K1966, 18 h), 0.0125 µg/mL (≈ 0.0358 µM); in [9], 1.56 µg/mL (≈ 4.46 µM); in test [10] (NIHJJC2, 18 h), 0.0125 µg/mL (≈ 0.0358 µM).

In the case of `CCn1cc(C(=O)O)c(=O)c2ccc(C)nc21` [nalidixic acid], the “activity against infections caused by Gram positive bacteria and Pseudomonas aeruginosa (chronic)” value (“activity against infections caused” below) in test [11] is on record as “not active”.

`CCn1cc(C(=O)O)c(=O)c2cnc(N3CCNCC3)nc21` [pipemidic acid]: in test [11], the “activity against infections caused” value is “not active”.

Regarding `CCn1cc(C(=O)O)c(=O)c2cnc(N3CCCC3)nc21` [piromidic acid], the “activity against infections caused” value in test [11] was “not active”.
